Results as given in ChEMBL document CHEMBL1201862, “PubChem BioAssay data set” (2004).
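Dose response: 5 concentrations. Exposure: 48 h. Format: 96-well plates. Endpoint: linear interpolation; highest concentration if not reached. GI50 = concentration required for 50% inhibition of growth.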 Calls of active or inactive are those of the source. Cut-off read from the data, not from the text of the source: active = GI50 up to about 1.1 µM and inactive = higher.

Legend:
Assay in all cases: inhibition of tumour cell growth, NCI panel, 48 h
KM12 = system: KM12
K562 = system: K562
NCI-H23 = system: NCI-H23
HCT-116 = system: HCT-116
MDA-MB-435 = system: MDA-MB-435
SF-295 = system: SF-295
SNB-75 = system: SNB-75
UACC-62 = system: UACC-62
OVCAR-8 = system: OVCAR-8
TK-10 = system: TK-10
OVCAR-4 = system: OVCAR-4
A549 = system: A549
NCI/ADR-RES = system: NCI/ADR-RES
NCI-H226 = system: NCI-H226
BT-549 = system: BT-549
U-251 = system: U-251
HOP-92 = system: HOP-92
786-0 = system: 786-0
CCRF-CEM = system: CCRF-CEM

Measured: GI50

O=C1/C(=C/c2ccco2)N=C(c2ccccc2)N1c1ccc(S(=O)(=O)Nc2nccs2)cc1
inactive: KM12 > 100 µM | K562 > 100 µM | NCI-H23 > 100 µM | HCT-116 > 100 µM | MDA-MB-435 > 100 µM | SF-295 > 100 µM | SNB-75 > 100 µM | UACC-62 93.5 µM | OVCAR-8 65.5 µM | TK-10 > 100 µM | OVCAR-4 69.2 µM | A549 89.7 µM | NCI/ADR-RES > 100 µM | NCI-H226 > 100 µM | BT-549 > 100 µM | U-251 71.9 µM | HOP-92 73.8 µM | 786-0 > 100 µM | CCRF-CEM 75.7 µM

COc1ccc(/N=C/N(C)C)c(C)c1
inactive: K562 2.51 µM | NCI-H23 2 µM | HCT-116 4.15 µM | MDA-MB-435 6.08 µM | SF-295 11 µM | SNB-75 16.7 µM | UACC-62 7.08 µM | OVCAR-8 7.13 µM | TK-10 19.8 µM | OVCAR-4 9.42 µM | A549 7.23 µM | NCI/ADR-RES 44.7 µM | NCI-H226 11.2 µM | BT-549 18.3 µM | U-251 4.28 µM | HOP-92 10.5 µM | 786-0 13.6 µM | CCRF-CEM 3.28 µM

COC1CC(C)(NC(C)=O)C2OC(c3ccccc3)OCC2O1 (centres undefined)
inactive: KM12 > 100 µM | K562 > 100 µM | NCI-H23 > 100 µM | HCT-116 > 100 µM | MDA-MB-435 > 100 µM | SF-295 > 100 µM | SNB-75 > 100 µM | UACC-62 > 100 µM | OVCAR-8 > 100 µM | TK-10 > 100 µM | OVCAR-4 > 100 µM | A549 > 100 µM | NCI/ADR-RES > 100 µM | NCI-H226 > 100 µM | BT-549 > 100 µM | U-251 > 100 µM | HOP-92 > 100 µM | 786-0 > 100 µM | CCRF-CEM > 100 µM

CC(C)Oc1cccc(N2C(NCCc3c[nH]c4ccccc34)=Nc3ccncc3S2(=O)=O)c1
inactive: KM12 30.5 µM | K562 3.82 µM | NCI-H23 33.1 µM | HCT-116 6.71 µM | MDA-MB-435 25.8 µM | SF-295 20.7 µM | SNB-75 8.05 µM | UACC-62 31 µM | OVCAR-8 57.4 µM | TK-10 19.2 µM | OVCAR-4 8 µM | A549 40.9 µM | NCI/ADR-RES 29.9 µM | NCI-H226 > 100 µM | BT-549 61.1 µM | U-251 17.9 µM | HOP-92 8.45 µM | 786-0 2.09 µM | CCRF-CEM 6.15 µM

Cc1n[nH]c(=O)n1N1C(=O)c2ccccc2C1=O
inactive: KM12 > 100 µM | K562 > 100 µM | NCI-H23 > 100 µM | HCT-116 > 100 µM | MDA-MB-435 > 100 µM | SF-295 > 100 µM | SNB-75 26.4 µM | UACC-62 > 100 µM | OVCAR-8 > 100 µM | TK-10 > 100 µM | OVCAR-4 > 100 µM | A549 > 100 µM | NCI/ADR-RES > 100 µM | NCI-H226 > 100 µM | BT-549 > 100 µM | U-251 > 100 µM | HOP-92 > 100 µM | 786-0 > 100 µM | CCRF-CEM > 100 µM

CC1OC(n2cnc3c(N)nc(Cl)nc32)C(C)(O)C1O (centres undefined)
inactive: KM12 > 25 µM | K562 > 25 µM | NCI-H23 > 25 µM | HCT-116 > 25 µM | MDA-MB-435 > 25 µM | SF-295 > 25 µM | SNB-75 1.41 µM | UACC-62 > 25 µM | OVCAR-8 19.8 µM | TK-10 > 25 µM | OVCAR-4 > 25 µM | A549 > 25 µM | NCI/ADR-RES > 25 µM | NCI-H226 > 25 µM | BT-549 > 25 µM | HOP-92 > 25 µM | 786-0 > 25 µM | CCRF-CEM > 25 µM

CCCCCCCCCCCCCCCCC(=O)NCC(=O)NCC(=O)NC(Cc1ccccc1)C(=O)Oc1ccc([N+](=O)[O-])cc1 (centres undefined)
inactive: KM12 22.7 µM | K562 23.3 µM | NCI-H23 73.1 µM | HCT-116 18.6 µM | MDA-MB-435 58.5 µM | SF-295 23 µM | SNB-75 45.2 µM | UACC-62 20.7 µM | OVCAR-8 19.2 µM | TK-10 71 µM | OVCAR-4 > 100 µM | A549 > 10 µM | NCI/ADR-RES 20.6 µM | NCI-H226 35 µM | BT-549 16.7 µM | U-251 18.4 µM | HOP-92 32.1 µM | 786-0 27.5 µM | CCRF-CEM 22 µM

O=Cc1ccc2c(c1)CC1(C2)Cc2ccc3c(c2C1)CCC3 (centres undefined)
inactive: KM12 11.4 µM | K562 6.34 µM | NCI-H23 14.6 µM | HCT-116 6.82 µM | MDA-MB-435 2.46 µM | SF-295 5.85 µM | SNB-75 7.24 µM | UACC-62 6.56 µM | OVCAR-8 13.1 µM | TK-10 16.6 µM | OVCAR-4 10.8 µM | A549 37.8 µM | NCI/ADR-RES 7.19 µM | NCI-H226 16.3 µM | BT-549 5.05 µM | U-251 8.51 µM | HOP-92 17 µM | 786-0 14.4 µM | CCRF-CEM 5.14 µM

CCOC(=O)c1c(NC(=O)OC)c(C#N)c2n1CCCCC2
inactive: KM12 > 100 µM | K562 > 100 µM | NCI-H23 > 100 µM | HCT-116 > 100 µM | MDA-MB-435 > 100 µM | SF-295 > 100 µM | SNB-75 > 100 µM | UACC-62 > 100 µM | OVCAR-8 > 100 µM | TK-10 > 100 µM | OVCAR-4 > 100 µM | NCI/ADR-RES > 100 µM | NCI-H226 > 100 µM | BT-549 > 100 µM | U-251 > 100 µM | HOP-92 93.3 µM | 786-0 > 100 µM | CCRF-CEM > 100 µM

CCNC1=C(NC(=O)CC)C(=O)c2ccccc2C1=O
inactive: KM12 > 100 µM | K562 > 100 µM | NCI-H23 70.8 µM | HCT-116 36.7 µM | MDA-MB-435 > 10 µM | SF-295 > 100 µM | SNB-75 > 100 µM | UACC-62 74.5 µM | OVCAR-8 79.1 µM | TK-10 > 100 µM | OVCAR-4 87.3 µM | A549 > 100 µM | NCI/ADR-RES 58.7 µM | NCI-H226 > 100 µM | BT-549 > 100 µM | U-251 > 100 µM | HOP-92 > 100 µM | 786-0 > 100 µM | CCRF-CEM 56 µM

COC(=O)[C@@]12CSC[C@]1(C(=O)OC)N[C@@H](c1ccccc1O)C2
inactive: KM12 > 100 µM | K562 > 100 µM | NCI-H23 > 100 µM | HCT-116 > 100 µM | MDA-MB-435 > 100 µM | SF-295 > 100 µM | SNB-75 > 100 µM | UACC-62 > 100 µM | OVCAR-8 > 100 µM | TK-10 > 100 µM | OVCAR-4 > 100 µM | A549 > 100 µM | NCI/ADR-RES > 100 µM | NCI-H226 > 100 µM | BT-549 > 100 µM | U-251 > 100 µM | HOP-92 > 100 µM | 786-0 > 100 µM | CCRF-CEM > 100 µM

CN(N=O)C(=O)Nc1ccc(C(=O)O)cc1
inactive: KM12 > 100 µM | K562 > 100 µM | NCI-H23 > 100 µM | HCT-116 > 100 µM | MDA-MB-435 > 100 µM | SF-295 > 100 µM | SNB-75 > 100 µM | UACC-62 > 100 µM | OVCAR-8 > 100 µM | TK-10 > 100 µM | OVCAR-4 > 100 µM | A549 > 100 µM | NCI/ADR-RES > 100 µM | NCI-H226 > 100 µM | BT-549 > 100 µM | U-251 > 100 µM | HOP-92 > 100 µM | 786-0 > 100 µM | CCRF-CEM > 100 µM

CCCCCCC(=O)c1ccc2ccccc2c1O
inactive: KM12 31 µM | K562 > 100 µM | NCI-H23 92.5 µM | HCT-116 53 µM | MDA-MB-435 69.2 µM | SF-295 34.5 µM | SNB-75 43.1 µM | UACC-62 47 µM | OVCAR-8 41.7 µM | TK-10 > 100 µM | OVCAR-4 > 100 µM | NCI/ADR-RES 51.2 µM | NCI-H226 40.1 µM | BT-549 76 µM | U-251 > 100 µM | HOP-92 93.3 µM | 786-0 38.8 µM | CCRF-CEM 33.1 µM

CC(=O)N(C(=O)CC(=O)N/N=C\c1ccc(Br)c(N(CCC#N)CCC#N)c1)c1ccc(Cl)cc1
inactive: KM12 14.1 µM | K562 60 µM | NCI-H23 86.1 µM | HCT-116 62.4 µM | MDA-MB-435 27.5 µM | SF-295 22.7 µM | SNB-75 54.2 µM | UACC-62 7.55 µM | OVCAR-8 54.5 µM | TK-10 27.8 µM | A549 27.4 µM | NCI/ADR-RES 52.8 µM | NCI-H226 36.1 µM | BT-549 58.9 µM | U-251 46.3 µM | HOP-92 30.2 µM | 786-0 45.9 µM | CCRF-CEM > 100 µM

COc1ccccc1-c1cc(=O)c2ccc(OC)c(OC)c2o1
inactive: K562 > 100 µM | NCI-H23 > 100 µM | HCT-116 45.9 µM | MDA-MB-435 46 µM | SF-295 40.8 µM | SNB-75 70.5 µM | UACC-62 51.5 µM | OVCAR-8 54.6 µM | TK-10 46.6 µM | OVCAR-4 38.4 µM | A549 45.6 µM | NCI/ADR-RES 26.4 µM | NCI-H226 > 100 µM | BT-549 76.9 µM | U-251 46.1 µM | HOP-92 28.2 µM | 786-0 89.1 µM | CCRF-CEM > 100 µM
